Measured values published in patent US20040266814A1, “Imidazopyridine compounds having 5-HT4 receptor agonistic activity and 5-HT3 receptor antagonistic activity” (Pfizer Inc, priority 2003, published 2004).
Where a name gives a salt, the structure may show the parent alone.

Assays:
[1] = molecular target: T1, rat 5-HT3 receptors (Rattus norvegicus, UniProt P35563); experiment: Rat 5-HT3 receptor binding ([3H]-BRL 43694, rat cortical membranes); conditions: read-out: r5HT3 Binding Ki
T1 construct: Cerebral cortical tissues were removed from male Sprague-Dawley (SD) rats; from tissue; host or cells: cerebral cortex of male Sprague-Dawley rats (membranes)
T1 sequence (P35563 24-483): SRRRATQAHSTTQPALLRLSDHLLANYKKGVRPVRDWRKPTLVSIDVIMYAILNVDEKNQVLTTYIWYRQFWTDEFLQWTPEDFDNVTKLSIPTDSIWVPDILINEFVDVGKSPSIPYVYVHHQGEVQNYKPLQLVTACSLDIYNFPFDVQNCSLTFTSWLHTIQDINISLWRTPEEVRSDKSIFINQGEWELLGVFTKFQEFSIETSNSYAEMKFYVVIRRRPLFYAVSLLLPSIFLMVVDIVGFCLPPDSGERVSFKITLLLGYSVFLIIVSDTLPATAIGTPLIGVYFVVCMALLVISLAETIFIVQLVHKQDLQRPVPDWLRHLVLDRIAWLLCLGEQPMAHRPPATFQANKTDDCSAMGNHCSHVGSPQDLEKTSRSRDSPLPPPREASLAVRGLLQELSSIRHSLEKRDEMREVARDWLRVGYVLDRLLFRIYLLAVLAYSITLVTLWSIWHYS
Method: Cerebral cortical tissues were removed from male Sprague-Dawley (SD) rats (Japan SLC), weighed and placed in 10 volumes of 50 mM ice-cold Tris-HCl (pH 7.5). This was homogenized in a Polytron homogenizer (30 sec at full speed) and subsequently centrifuged at 48,000 g and 4° C. for 15 min. The resulting pellet was resuspended in 50 mM ice-cold Tris-HCl, homegenized and centrifuged again in the same way. The final pellet was resuspended in an appropriate volume of 50 mM Tris-HCl, dispensed into aliquots and stored at −80° C. until use.
The protein concentrations of homogenates were determined by Bradford method or BCA protein method (Pierce) with BSA as a standard.
Affinity of compounds for pig or bovine 5-HT4 and rat 5-HT3 receptors were assessed with using radiolabeled specific ligands, GR 113808 ({1-[2-(methylsulfonyl)ethyl]-4-piperidinyl} [methyl-^3H]-1H-indole-3-carboxylate) and BRL 43694 (1-Methyl-N-(9-[methyl-^3H]-9-azabicyclo [3.3.1]non-3-yl)-1H-indazole-3-caboxamide). Compounds were incubated with 25-100 pM of [^3H]-GR 113808 (Amersham) and 0.6-1 mg protein of pig or bovine striatal membranes suspended in a final volume of 0.8-1 ml of 50 mM Tris-HCl (pH 7.5). Nonspecific binding was determined with 10-50 μM 5-HT. The binding of 0.3 nM [^3H]-BRL 43694 (NEN) was measured using 400 μg protein of rat cortical membranes suspended in a final volume of 500 μl of 50 mM Tris-HCl (pH 7.5)., Nonspecific binding was determined with 10 μM 5-HT.
The plates were incubated at room temperature on a plate shaker for 30 min. The assays were stopped by rapid filtration using a Brandell cell harvester through Wallac-B filters pre-soaked in 0.2% poly(ethylenimine) at 4° C. for 60-90 min. The filters were washed three times with 1 ml of ice-cold 50 mM HEPES, and were dried in a microwave or at room temperature. They were bagged and heated with meltilex scintillant (Wallac) or soaked in BetaplateScint (Wallac). Receptor-bound radioactivity was quantified using Big-spot counter, Betaplate counter (Wallac) or LS counter (Packard).

[2] = molecular target: T2, Human 5-HT4(d) transfected HEK293 cells (Homo sapiens, UniProt Q13639); experiment: Agonist-induced cAMP elevation in human 5-HT4(d) transfected HEK293 cells; format: cell-based; conditions: for Emax: HEK293, normalized to cAMP produced by 1000 nM serotonin, read-out: cAMP 5HT4 function Emax; for EC50: human 5-HT4(d) transfected HEK293 cells, read-out: cAMP 5HT4 function; for cAMP 5HT4 function, verdict in words: table remark in brackets
T2 construct: expressed in transfected cells; host or cells: HEK293
T2 sequence (Q13639 1-360 isoform Q13639-3): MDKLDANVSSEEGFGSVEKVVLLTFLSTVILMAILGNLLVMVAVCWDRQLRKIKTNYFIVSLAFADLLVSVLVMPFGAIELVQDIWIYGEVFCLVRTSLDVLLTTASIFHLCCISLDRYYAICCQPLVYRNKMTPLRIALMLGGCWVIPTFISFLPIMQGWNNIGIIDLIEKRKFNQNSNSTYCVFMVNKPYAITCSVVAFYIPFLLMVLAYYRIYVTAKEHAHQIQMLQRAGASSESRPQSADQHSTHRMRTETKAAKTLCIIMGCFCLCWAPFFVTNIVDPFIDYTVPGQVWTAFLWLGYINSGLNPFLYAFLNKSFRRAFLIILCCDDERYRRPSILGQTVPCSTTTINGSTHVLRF
Method: Agonist-Induced cAMP Elevation in Human 5-HT4(d) Transfected HEK293 Cells
Human 5-HT4(d) transfected HEK293 cells were established in-house. The cells were grown at 37° C. and 5% CO2 in DMEM supplemented with 10% FCS, 20 mM HEPES (pH 7.4), 200 μg/ml hygromycin B (Gibco), 100 units/ml penicillin and 100 μg/ml streptomycin.
The cells were grown to 60-80% confluence. On the previous day before treatment with compounds dialyzed FCS (Gibco) was substituted for normal and the cells were incubated overnight.
Compounds were prepared in 96-well plates (12.5 μl/well). The cells were harvested with PBS/1 mM EDTA, centrifuged and washed with PBS. At the beginning of the assay, cell pellet was resuspended in DMEM supplemented with 20 mM HEPES, 10 μM pargyline (Sigma) and 1 mM 3-isobutyl-1-methylxanthine (Sigma) at the concentration of 1.6×10^5 cells/ml and left for 15 minutes at room temperature. The reaction was initiated by addition of the cells into plates (12.5 μl/well). After incubation for 15 minutes at room temperature, 1% Triton X-100 was added to stop the reaction (25 μl/well) and the plates were left for 30 minutes at room temperature. Homogenous time-resolved fluorescence-based cAMP (Schering) detection was made according to the manufacturer's instruction. ARVOsx multilabel counter (Wallac) was used to measure HTRF (excitation 320 nm, emission 665 nm/620 nm, delay time 50 μs, window time 400 μs).
Data was analyzed based on the ratio of fluorescence intensity of each well at 620 nm and 665 nm followed by cAMP quantification using cAMP standard curve. Enhancement of cAMP production elicited by each compound was normalized to the amount of cAMP produced by 1000 nM serotonin (Sigma).

[3] = molecular target: T3, Human 5-HT4(d) (Homo sapiens, UniProt Q13639); experiment: Human 5-HT4 binding ([3H]-GR113808, SPA); conditions: human 5-HT4(d) HEK293 membranes, read-out: h5HT4 Ki
T3 construct: expressed in transfected cells; host or cells: HEK293
T3 sequence (Q13639 1-360 isoform Q13639-3): as above
Method: Human S-HT4(d) transfected HEK293 cells were prepared and grown in-house. The collected cells were suspended in 50 mM HEPES (pH 7.4 at 4° C.) supplemented with protease inhibitor cocktail (Boehringer, 1:1000 dilution) and homogenized using a hand held Polytron PT 1200 disruptor set at full power for 30 sec on ice. The homogenates were centrifuged at 40,000×g at 4° C. for 30 min. The pellets were then resuspended in 50 mM HEPES (pH 7.4 at 4° C.) and centrifuged once more in the same manner. The final pellets were resuspended in an appropriate volume of 50 mM HEPES (pH 7.4 at 25° C.), homogenized, aliquoted and stored at −80° C. until use. An aliquot of membrane fractions was used for protein concentration determination using BCA protein assay kit (PIERCE) and ARVOsx plate reader (Wallac).
For the binding experiments, 25 μl of test compounds were incubated with 25 μl of [^3H]-GR113808 (Amersham, final 0.2 nM) and 150 μl of membrane homogenate and WGA-SPA beads (Amersham) suspension solutions (10 μg protein and 1 mg SPA beads/well) for 60 minutes at room temperature. Nonspecific binding was determined by 1 μM GR113808 (Tocris) at the final concentration. Incubation was terminated by centrifugation at 1000 rpm. Receptor-bound radioactivity was quantified by counting with MicroBeta plate counter (Wallac).

[4] = molecular target: T4, 5-HT3 (Cavia porcellus, UniProt O70212); experiment: 5-HT3 antagonist assay in guinea-pig longitudinal muscle-myenteric plexus (LMMP)
T4 construct: 5-HT3 antagonist assay in guinea-pig longitudinal muscle-myenteric plexus (LMMP); from tissue; host or cells: guinea-pig longitudinal muscle-myenteric plexus (LMMP)
T4 sequence (O70212 20-490): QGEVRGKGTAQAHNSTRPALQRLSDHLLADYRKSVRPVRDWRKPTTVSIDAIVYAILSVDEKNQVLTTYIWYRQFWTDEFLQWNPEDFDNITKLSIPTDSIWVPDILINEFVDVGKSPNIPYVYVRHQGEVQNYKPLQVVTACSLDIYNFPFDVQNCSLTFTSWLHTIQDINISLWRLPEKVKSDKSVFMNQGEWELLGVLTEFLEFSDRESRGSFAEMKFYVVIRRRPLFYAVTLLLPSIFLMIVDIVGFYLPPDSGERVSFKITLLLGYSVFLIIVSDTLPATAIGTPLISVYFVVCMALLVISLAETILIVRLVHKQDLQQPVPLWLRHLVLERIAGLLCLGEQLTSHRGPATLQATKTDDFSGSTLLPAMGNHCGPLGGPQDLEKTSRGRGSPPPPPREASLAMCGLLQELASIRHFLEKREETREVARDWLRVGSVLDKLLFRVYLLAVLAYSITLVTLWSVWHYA
Method: 5-HT3 Functional Assay Method
5-HT3 antagonist assay in guinea-pig longitudinal muscle-myenteric plexus (LMMP): The LMMP tissues were prepared according to the method of A. Butler et al. (Br. J. Pharmacology, 101: 591-598, 1990) and their 5-HT4 receptors were desensitized by performing in 10 μM of 5-methoxytryptamine-containing Krebs solution. Non-cumulative concentration-effect curves (CECs) to 5-HT were constructed across the range […] in half-log unit increments. After 60-minute-equilibration with antagonists, 2nd CECs to 5-HT were constructed until 1 mM.

| Compound | melting point [°C] | Ki [1] [nM] | 5HT4 receptor agonistic activity [2] | Emax [2] [%] | EC50 [2] [nM] | cAMP 5HT4 function, verdict in words [2] | Ki [3] [nM] | cAMP 5HT4 function, % @1000 ([2]; @1000 [nM], normalized to 1000 nM serotonin) [%] | LMMP 5HT3 function pA ([4]; antagonism of 5-HT) | Kb ([4]; read-out: pA2 (5HT3 antagonistic functional activity) (converted)) [nM] |
| --- | --- | --- | --- | --- | --- | --- | --- | --- | --- | --- |
| Cc1cn2c(N)c(Cl)cc(C(=O)NCC3CCNCC3)c2n1 (as salt: hydrochloride) [Example 1, 5-AMINO-6-CHLORO-2-METHYL-N-(PIPERIDIN-4-YLMETHYL)-IMIDAZO[1,2-a]PYRIDINE-8-CARBOXAMIDE] | 237 |  |  |  |  |  |  |  |  |  |
| O=C(NC1CN2CCC1CC2)c1cc(Cl)cn2ccnc12 (centres unmarked) [C] |  | 6 | inactive | 11 | 2660 | inactive |  |  |  |  |
| CCCCN1CCC(CNC(=O)c2cc(Cl)cn3ccnc23)CC1 [compound B] |  | 4300 | inactive |  |  | inactive | 1.1 | 0 |  |  |
| Cc1cn2c(N)c(Cl)cc(C(=O)NCC3CCNCC3)c2n1 [Example 1, 5-AMINO-6-CHLORO-2-METHYL-N-(PIPERIDIN-4-YLMETHYL)-IMIDAZO[1,2-a]PYRIDINE-8-CARBOXAMIDE] |  | 26 |  | 88 | 13.6 |  | 58 |  |  |  |
| CN(C)C1(CCNC(=O)c2cc(Cl)cn3ccnc23)CCCCC1 |  | 785 |  |  |  |  |  |  |  |  |
| CCc1cn2c(N)c(Cl)cc(C(=O)NCC3CCNCC3)c2n1 [Example 2, 5-AMINO-6-CHLORO-2-ETHYL-N-(PIPERIDIN-4-YLMETHYL)IMIDAZO[1,2-a]PYRIDINE-8-CARBOXAMIDE] | 153 | 48 |  | 58 | 40 |  | 109 |  | 6.6 | 251 |
